From patent publication US20060183901A1, “Crystalline form of an indazole-carboxamide compound” (THERAVANCE, INC., priority 2005, published 2006)

What was measured:
[1] = target: T1, hERG cardiac potassium channel (Homo sapiens, UniProt Q12809); assay: In vitro voltage clamp assay of inhibition of potassium ion current in whole cells expressing hERG; assay type: cell-based; settings: pH 7.4, 5 minutes exposure, CHO-K1 cells
T1 construct: host or cells: CHO-K1
Procedure: Assay 4: In Vitro Voltage Clamp Assay of Inhibition of Potassium Ion Current in Whole Cells Expressing the hERG Cardiac Potassium Channel
CHO-K1 cells stably transfected with hERG cDNA were obtained from Gail Robertson at the University of Wisconsin. Cells were held in cryogenic storage until needed. Cells were expanded and passaged in Dulbecco's Modified Eagles Medium/F 12 supplemented with 10% fetal bovine serum and 200 μg/mL geneticin. Cells were seeded onto poly-D-lysine (100 μg/mL) coated glass coverslips, in 35 mm^2 dishes (containing 2 mL medium) at a density that enabled isolated cells to be selected for whole cell voltage-clamp studies. The dishes were maintained in a humidified, 5% CO2 environment at 37° C.
Extracellular solution was prepared at least every 7 days and stored at 4° C. when not in use. […]
The coverslips on which the cells were seeded were transferred to a recording chamber and perfused continuously. […] Peak current amplitudes during the repolarization phase were determined using pClamp software. […]
Peak current amplitudes during the repolarization phase were determined using pCLAMP software. […] The normalized current means and standard errors for each condition were calculated and plotted versus the time course of the experiment. […]

[2] = Pharmacokinetic study in the rat; settings: in vivo
Procedure: Assay 6: Pharmacokinetic Study in the Rat
Aqueous solution formulations of test compounds were prepared in 0.1% lactic acid at a pH of between about 5 and about 6. Male Sprague-Dawley rats (CD strain, Charles River Laboratories, Wilmington, Mass.) were dosed with test compounds via intravenous administration (IV) at a dose of 2.5 mg/kg or by oral gavage (PO) at a dose of 5 mg/kg. The dosing volume was 1 mL/kg for IV and 2 mL/kg for PO administration. Serial blood samples were collected from animals pre-dose, and at 2 (IV only), 5, 15, and 30 min, and at 1, 2, 4, 8, and 24 hours post-dose. Concentrations of test compounds in blood plasma were determined by liquid chromatography-mass spectrometry analysis (LC-MS/MS) (MDS SCIEX, API 4000, Applied Biosystems, Foster City, Calif.) with a lower limit of quantitation of 1 ng/mL.
Standard pharmacokinetic parameters were assessed by non-compartmental analysis (Model 201 for IV and Model 200 for PO) using WinNonlin (Version 4.0.1, Pharsight, Mountain View, Calif.). The maximum in the curve of test compound concentration in blood plasma vs. time is denoted Cmax. The area under the concentration vs. time curve from the time of dosing to the last measurable concentration (AUC(0-t)) was calculated by the linear trapezoidal rule. Oral bioavailability (F(%)), i.e. the dose-normalized ratio of AUC(0-t) for PO administration to AUC(0-t) for IV administration, was calculated as: F(%)=AUCPO/AUCIV×DoseIV/DosePO×100%

human 5-HT4(c) receptor = human 5-HT4(c) receptor (Homo sapiens, UniProt Q13639); assay: Whole-cell cAMP accumulation flashplate assay with HEK-293 cells expressing human 5-HT4(c) receptors; assay type: cell-based; design: expressed in transfected cells; host or cells: HEK-293
Chain of human 5-HT4(c) receptor (Q13639 1-380 isoform Q13639-4): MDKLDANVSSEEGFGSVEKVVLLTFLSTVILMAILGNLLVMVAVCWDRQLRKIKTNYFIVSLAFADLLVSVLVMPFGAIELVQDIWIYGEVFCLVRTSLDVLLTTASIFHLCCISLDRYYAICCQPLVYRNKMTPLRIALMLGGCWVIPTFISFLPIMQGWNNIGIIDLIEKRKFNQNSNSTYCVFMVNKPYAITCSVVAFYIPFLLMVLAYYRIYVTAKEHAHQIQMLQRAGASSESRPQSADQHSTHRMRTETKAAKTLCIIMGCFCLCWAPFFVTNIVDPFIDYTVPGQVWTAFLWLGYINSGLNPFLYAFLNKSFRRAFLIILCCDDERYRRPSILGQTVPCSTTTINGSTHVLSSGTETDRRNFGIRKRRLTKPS
Procedure: The plates were sealed and incubated at 4° C. overnight.
Potency data are reported as pEC50 values, the negative decadic logarithm of the EC50 value, where EC50 is the effective concentration for a 50% maximal response.

[3] = male Sprague-Dawley rats, PO 5 mg/kg, blood plasma

T1 sequence (Q12809 whole entry): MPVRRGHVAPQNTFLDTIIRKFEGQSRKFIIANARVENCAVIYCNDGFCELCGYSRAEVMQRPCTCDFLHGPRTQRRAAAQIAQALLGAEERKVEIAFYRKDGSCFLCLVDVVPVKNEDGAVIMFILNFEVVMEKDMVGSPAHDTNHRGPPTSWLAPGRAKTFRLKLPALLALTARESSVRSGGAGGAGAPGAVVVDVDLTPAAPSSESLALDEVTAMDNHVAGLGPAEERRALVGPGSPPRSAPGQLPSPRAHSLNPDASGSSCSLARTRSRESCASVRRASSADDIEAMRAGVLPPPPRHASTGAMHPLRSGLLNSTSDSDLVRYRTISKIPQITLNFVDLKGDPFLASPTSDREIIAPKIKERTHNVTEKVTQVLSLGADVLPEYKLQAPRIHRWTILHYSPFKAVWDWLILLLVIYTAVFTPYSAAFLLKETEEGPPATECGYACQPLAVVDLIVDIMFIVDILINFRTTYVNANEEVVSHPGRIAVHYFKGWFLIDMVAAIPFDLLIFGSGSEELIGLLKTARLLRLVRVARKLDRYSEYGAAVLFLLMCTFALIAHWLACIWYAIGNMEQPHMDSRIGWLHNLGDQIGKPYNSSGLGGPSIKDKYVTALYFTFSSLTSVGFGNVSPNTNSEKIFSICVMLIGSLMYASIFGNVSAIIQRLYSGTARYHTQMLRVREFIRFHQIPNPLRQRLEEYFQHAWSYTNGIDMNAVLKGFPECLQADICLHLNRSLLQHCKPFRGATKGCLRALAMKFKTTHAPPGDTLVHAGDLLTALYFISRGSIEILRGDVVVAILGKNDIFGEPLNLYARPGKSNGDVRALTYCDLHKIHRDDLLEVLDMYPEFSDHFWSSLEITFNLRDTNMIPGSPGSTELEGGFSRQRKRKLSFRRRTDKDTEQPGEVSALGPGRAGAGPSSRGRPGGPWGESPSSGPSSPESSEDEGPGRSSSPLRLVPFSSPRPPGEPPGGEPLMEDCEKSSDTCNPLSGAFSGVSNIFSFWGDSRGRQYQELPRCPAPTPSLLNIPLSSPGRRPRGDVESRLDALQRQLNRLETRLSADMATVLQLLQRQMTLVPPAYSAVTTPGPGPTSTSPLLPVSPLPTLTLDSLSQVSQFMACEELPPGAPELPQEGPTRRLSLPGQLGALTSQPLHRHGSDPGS

For `CC(=O)N1CCN(CCN2C3CCC2CC(NC(=O)c2nn(C(C)C)c4ccccc24)C3)CC1` [compound of formula I, 1-isopropyl-1H-indazole-3-carboxylic acid {(1S,3R,5R)-8-[2-(4-acetylpiperazin-1-yl)ethyl]-8-azabicyclo[3.2.1]oct-3-yl}amide], the inhibition at 5 min, 3 µM [1] was under 15%, the AUC(0-t) [2, 3] was 730 ng·h/mL and the Cmax [2, 3] was 250 ng/mL. The bioavailability ([2]; male, Sprague-Dawley, PO 5 mg/kg vs IV 2.5 mg/kg, read-out: oral bioavailability (F(%))) was about 100% and the EC50 (human 5-HT4(c) receptor) was under 0.0316 µM.
